Reference: patent US8980564B2, “Predictive markers for taxane responsiveness and methods of use thereof” (The Governors of the University of Alberta, priority 2009, dated 2015)

What was measured:
breast cancer = assay: Survival analysis of breast cancer patients after adjuvant docetaxel-based chemotherapy, stratified by Bad staining; type: in vivo, human; settings: 180 women, multivariate modeling
Protocol: Tissue micoarrays were made from formalin fixed breast tissues in triplicate 0.6 mm cores using the TMArrayer™. Tissues on slides were deparaffinized in xylene and rehydrated in decreasing concentrations of ethanol to water. Endogenous peroxidase was quenched in 0.3% H2O2 for 10 minutes. For antigen retrieval, slides were placed in boiling citrate buffer pH 6.0 for 10 minutes followed by rinsing in water for 10 minutes. Tissues were incubated with the BAD antibody (Cell Signaling Technology) at a dilution of 1/25 at 4° C. overnight in a humidified container or with Bik antibody (Cell signaling Technology) at a dilution of 1/50 at room temperature in a humidified container. Slides were washed 2 times in PBS for 5 minutes. For the secondary antibody, Anti-Rabbit EnVision+System-HRP (Dako) was incubated on the tissues at room temperature for 30 minutes. Slides were washed 2 times in PBS and then tissues were incubated with DAB (Dako) for 10 minutes. Slides were rinsed in water for 10 minutes followed by a soak in 1% Copper Sulfate for 5 minutes. Haematoxylin was used to counterstain the tissues. […] Staining intensity was scored as 0 (absent), 1 (weak), or 2 (strong). […] Using ROC, an optimized cutpoint of 0.57 was chosen for Bad expression and an optimized cutpoint of 0.1 was chosen for Bik expression, and patients were analyzed based on this cutpoint. […]

Bad:Bcl-XL = assay: Co-immunoprecipitation of Bad with Bcl-XL; settings: 25 nM paclitaxel 48 h or 2.5 uM STS 4 hours
Bad = assay: Subcellular fractionation, Bad localization by Western blotting; settings: MCF-7, MDA-MB-468, SKBR-3; 25 nM paclitaxel 48 h or 2.5 uM STS 4 hours
breast cancer cell lines = assay: Apoptosis assays (TMRE loss, annexin V) in a panel of five breast cancer cell lines; type: cell-based, human; settings: 25 nM paclitaxel; TMRE loss and annexin V positivity
Protocol: (§1) Apoptosis assays were performed as described previously (Czernick et al., 2009). Briefly, breast cancer cell lines were treated with dimethyl sulfoxide (DMSO) vehicle control or 25 nM paclitaxel, which corresponds to a clinically relevant dose (Blagosklonny and Fojo, 1999; Jordan et al., 1996). After treatment, samples were divided and analyzed for apoptosis. Apoptosis was evaluated by fluorescence-activated cell sorting (FACS) analysis using the following apoptotic markers: (i) mitochondrial dysfunction [loss of mitochondrial electrochemical potential and decreases in tetramethyl rhodamine ethyl ester (TMRE)]. Percent specific TMRE loss was determined as (% TMRE negative cells of treated sample−% TMRE negative cells of untreated control sample); (ii) increases in phosphatidylserine externalization (Annexin V). Percent specific annexin V positivity was determined as (% annexin V positive cells of treated sample−% annexin V positive cells of untreated control sample).
To investigate which BH3-only proteins are involved in paclitaxel-induced apoptosis, a panel of five validated breast cancer cell lines acquired from Dr. Gordon Mills (M.D. Anderson Cancer Center, U. of Texas) was analyzed; validated cells were used to avoid any controversy with respect to lineage authenticity (Graham et al., 1986; Osborne et al., 1987). […]

Bcl-XL = Bcl-XL protein level in treated cells; type: cell-based, human; settings: paclitaxel-treated cells
Text: In fact, mitotic arrest-mediated repression of Bcl-XL contributes to cell death via liberation of Bax (Upreti et al., 2008).

MCF-7 cells = assay: DNA content analysis by propidium iodide staining (cell cycle); type: cell-based, human; settings: up to 24 hours in paclitaxel
Protocol: Samples were fixed at −20° C. in ice-cold 70% ethanol for a minimum of 24 hours. After fixation, the samples were stained with 20 ug/ml propidium iodide, 2 mg/ml RNase, 0.1% Triton X-100 in PBS for 30 minutes at 4° C. Samples were analyzed in the FL-2 channel on the FACScan as previously described, with the exception that doublet discrimination was achieved by gating on the smaller width G2 cells as determined by analysis of pulse width versus pulse area (Goping et al., 2008).
To verify that the increased proportion of cells in G1 was due to delayed G1 exit and not increased G1 entry, G1 entry was inhibited by arresting cells at G2/M with paclitaxel. […] In time course analyses, the progression of cells from G1 through S to G2/M was delayed in Bad-depleted cells relative to control transfected cells. […] Based on these observations, and again while not wishing to be bound by theory, it was concluded that Bad contributes to cell cycle progression by facilitating exit from the G1 phase of the cell cycle and is supported by a similar role of Bad in rat fibroblasts (Chattopadhyay et al., 2001).

MCF-7 cell line = assay: Apoptosis assays (TMRE loss, annexin V) in MCF-7; type: cell-based, human; settings: 25 nM paclitaxel
Protocol: as §1
Each cell line was treated with 25 nM of paclitaxel, which induces a clinically relevant intracellular accumulation of the drug in tissue culture conditions (Derry et al., 1998; Jordan et al., 1996). After the indicated amount of time, apoptosis was assessed by measuring mitochondrial electrochemical potential loss (TMRE loss) and phosphatidyl serine externalization (annexin V positivity) (FIG. 1A).

| SMILES | hazard ratio of relapse, low Bad tumour staining intensity (breast cancer; 95% CI 1.05-3.66) | death hazard ratio, low Bad tumour staining intensity (breast cancer; 95% CI 1.05-3.66 as printed) | association of Bad and Bcl-XL (Bad:Bcl-XL) | mitochondrial translocation of Bad (Bad) | relative paclitaxel sensitivities of the breast cancer cell lines, rank order of increasing sensitivity (breast cancer cell lines) | levels of Bcl-XL protein (Bcl-XL) | mitotic arrest (G2/M) (MCF-7 cells) | cell death based on mitochondrial dysfunction and cellular morphology (MCF-7 cell line; MCF-7) | loss of mitochondrial potential (TMRE loss) (MCF-7 cell line; MCF-7) | phosphatidyl serine externalization (annexin V positivity) (MCF-7 cell line; MCF-7, cells do not express caspase 3) |
| --- | --- | --- | --- | --- | --- | --- | --- | --- | --- | --- |
| CC(=O)O[C@@]12CO[C@@H]1C[C@H](O)[C@@]1(C)C(=O)[C@H](O)C3=C(C)[C@@H](OC(=O)[C@H](O)[C@@H](NC(=O)OC(C)(C)C)c4ccccc4)C[C@@](O)([C@@H](OC(=O)c4ccccc4)[C@H]21)C3(C)C [docetaxel] | 1.96 | 3.65 |  |  |  |  |  |  |  |  |
| CN[C@@H]1C[C@H]2O[C@@](C)([C@@H]1OC)n1c3ccccc3c3c4c(c5c6ccccc6n2c5c31)C(=O)NC4 [STS, staurosporine] |  |  | remained as a complex | migrated to mitochondria |  |  |  |  |  |  |
| CC(=O)O[C@H]1C(=O)[C@@]2(C)[C@H]([C@H](OC(=O)c3ccccc3)[C@]3(O)C[C@H](OC(=O)[C@H](O)[C@@H](NC(=O)c4ccccc4)c4ccccc4)C(C)=C1C3(C)C)[C@]1(OC(C)=O)CO[C@@H]1C[C@@H]2O [paclitaxel] |  |  | decreased association of Bad and Bcl-XL | did not induce mitochondrial translocation of Bad | MDA-MB-231, T47-D, MDA-MB-468, MCF-7 and SKBR-3 | reduced levels of Bcl-XL protein | induced mitotic arrest | induced significant death | robust loss of mitochondrial potential | blunted |
